Here are results for one compound from patent US20250250542A1, “CULTURE METHOD” (Quell Therapeutics Limited, priority 2023, published 2025).

Each structure is given as a SMILES string.

Assay [1] concerns Tregs from patient material. Put plainly: Transduction efficiency of expansion product (% Dextramer+/QBEND+).
Procedure: A lentiviral vector was used to transduce the cells. The vector encodes an RQR8 safety switch, a FOXP3 polypeptide and an HLA-A2-specific CAR.
The Tregs were rested in Treg culture media (X-VIVO 15 media (Lonza) supplemented with 5% Human AB serum (heat-inactivated; Merck)) containing 100 nM of rapamycin for 1 hour before activation. The Tregs were then activated by adding CD3 and CD28 beads and cultured for 24 or 48 hours (1+24 and 1+48 conditions respectively). At 24 or 48 hours, the cells were washed with fresh Treg culture media and centrifuged. The supernatant was removed and the cell pellet was resuspended in fresh Treg culture media. The expansion was then continued in the fresh Treg culture media (X-VIVO 15 media (Lonza) supplemented with 5% Human AB serum (heat-inactivated; Merck)) further containing IL-2 (Proleukin, Clinigen Healthcare) and lentiviral supernatant but no rapamycin. Cells were re-fed every 2 to 3 days with Treg culture media supplemented with IL-2. Cells were harvested by removing the CD3 and CD28 beads 14 days after activation.
Assay [2] deals with bulk Tregs from patient donor material. Put plainly: % of FOXP3+ cells in the expansion product from patient donor material. Type of assay: cell-based, human. Conditions: 100 nM rapamycin. From the text: Leukopaks were supplied by BioIVT.
Leukopaks were used to derive Treg populations. […] Where indicated, CD4+CD25+CD127−/low (Bulk Tregs) were used.

`CO[C@H]1C[C@@H]2CC[C@@H](C)[C@@](O)(O2)C(=O)C(=O)N2CCCC[C@H]2C(=O)O[C@H]([C@H](C)C[C@@H]2CC[C@@H](O)[C@H](OC)C2)CC(=O)[C@H](C)/C=C(\C)[C@@H](O)[C@@H](OC)C(=O)[C@H](C)C[C@H](C)/C=C/C=C/C=C/1C` [rapamycin]: the “% Dextramer+/QBEND+” value is on record as 30% in assay [1] (donor LTX-008, 1 + 24 (control 36)); 37.8% in assay [1] (donor LTX-008, 1 + 48 (control 36)); 30.8% in assay [1] (donor LTX-0011, 1 + 48 (control 20.5)); 11% in assay [1] (donor LTX-0012, 1 + 48 (control 10)). Besides, the “% CD4+CD25+FOXP3+ cells” value in assay [2] (donor LTX-008, 1 + 24 h, day 14 (control 80.8)) amounted to 91.2%; in assay [2] (donor LTX-008, 1 + 48 h, day 14 (control 80.8)) it was 91.4%; in assay [2] (donor LTX-0011, 1 + 48 h, day 14 (control 57.3)), 92.6%; in assay [2] (donor LTX-0012, 1 + 48 h, day 14 (control 92.8)), 98.2%; in assay [2] (donor LTX-0013, 1 + 48 h, day 14 (control 41.0)), 89.9%.
